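Method: 48-hour compound exposure of cells in 96-well plates, five concentrations, linear interpolation of endpoints. Definition used: TGI = concentration required for complete inhibition of growth.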
Assays:
Assay in all cases: DTP human tumour cell line panel, 48 h
COLO 205 colon = system: COLO 205 colon
UACC-62 melanoma = system: UACC-62 melanoma
NCI-H23 lung = system: NCI-H23 lung
K-562 leukemia = system: K-562 leukemia
786-0 renal = system: 786-0 renal
IGROV1 ovarian = system: IGROV1 ovarian
NCI-H460 lung = system: NCI-H460 lung
CAKI-1 renal = system: CAKI-1 renal
SN12C renal = system: SN12C renal
U251 CNS = system: U251 CNS
SF-295 CNS = system: SF-295 CNS

| Structure (SMILES) | TGI (COLO 205 colon) | TGI (UACC-62 melanoma) | TGI (NCI-H23 lung) | TGI (K-562 leukemia) | TGI (786-0 renal) | TGI (IGROV1 ovarian) | TGI (NCI-H460 lung) | TGI (CAKI-1 renal) | TGI (SN12C renal) | TGI (U251 CNS) | TGI (SF-295 CNS) |
| --- | --- | --- | --- | --- | --- | --- | --- | --- | --- | --- | --- |
| N#Cc1c(Cl)nc2ccccc2c1N=[N+]=[N-] | 3.56 µM | 7.14 µM | 6.3 µM | 2.45 µM | 7.17 µM | 3.9 µM | 21.4 µM | 3.12 µM | 10.7 µM | 12.5 µM | 22.4 µM |
| O=S(=O)(c1ccccc1)n1cc(C[P+](c2ccccc2)(c2ccccc2)c2ccccc2)c2ccccc21 | 4.78 µM | 17.8 µM | 17.8 µM | 14.2 µM | 16.3 µM | 16 µM | 15.3 µM | 26.9 µM | 19.8 µM | 15.8 µM | 24.3 µM |
| CCCCCCOc1ccc(C(=O)N(C)O)cc1 | 56 µM | 60.9 µM | 65.6 µM | > 78.8 µM | 55.7 µM | > 100 µM | 30 µM | > 91.2 µM | > 93.9 µM | > 100 µM | > 62.4 µM |
| Cc1nn2c(C(=O)N/N=C/c3ccc([N+](=O)[O-])cc3)c(C)nc2s1 | > 100 µM | > 100 µM | > 100 µM | > 100 µM | > 100 µM | > 100 µM | > 100 µM | > 100 µM | > 100 µM | 53.5 µM | > 100 µM |
| Cc1sc(C)c2c1C(=O)CC2N (centres undefined) | 40.1 µM | > 100 µM | > 96.2 µM | > 56.1 µM | 22.5 µM | > 69 µM | > 70.2 µM | 28.9 µM | > 58.6 µM | > 100 µM | > 100 µM |
| CN(C)CC1CCCCCCCCCC(CN(C)C)C1=O (centres undefined) | > 100 µM | > 44.1 µM | > 50.5 µM | > 38.5 µM | > 40.6 µM | > 55.8 µM | > 57 µM | > 50 µM | > 53.5 µM | > 54.5 µM | > 59.7 µM |
| O=c1oc2ccc(Cl)cc2cc1-c1cn2ccccc2n1 | > 100 µM | 38.2 µM | 46.8 µM | > 100 µM | 18 µM | > 100 µM | > 62.5 µM | 45.9 µM | 36.8 µM | > 40.2 µM | 24.5 µM |
| N#Cc1nc(-c2ccccn2)oc1N | > 100 µM | > 100 µM | > 100 µM | > 100 µM | > 100 µM | > 100 µM | > 100 µM | > 100 µM | > 100 µM | > 100 µM | > 100 µM |
| Clc1ccc(-c2ccc(-c3nnc(COc4ccc(OCc5nnc(-c6ccc(-c7ccc(Cl)cc7Cl)o6)o5)c(Cl)c4)o3)o2)c(Cl)c1 | > 100 µM | > 100 µM | > 100 µM | > 100 µM | > 100 µM | > 100 µM | > 100 µM | > 100 µM | > 100 µM | > 100 µM | > 100 µM |
| Cc1ccc(N2CCN(CCC(=O)O)CC2)cc1 | > 100 µM | > 100 µM | > 100 µM | > 100 µM | > 100 µM | > 100 µM | > 100 µM | > 100 µM | > 100 µM | > 100 µM | > 100 µM |
| N#Cc1c(O)c(N=Nc2ccc(Cl)cc2)c(=O)n2c1[nH]c1ccccc12 | > 100 µM | > 100 µM | > 100 µM | > 100 µM | > 100 µM | > 100 µM | > 100 µM | > 100 µM | > 100 µM | > 100 µM | > 100 µM |
| Cc1cc(=O)[nH]c(NNC(C#N)c2c(O)ccc3ccccc23)n1 (centres undefined) | 57 µM | 10.1 µM | 20.5 µM | > 100 µM | 79.8 µM | 23.4 µM | 17.2 µM | 22 µM | 38.2 µM | 43.3 µM | > 100 µM |
| C=C(C)C(O)C(O)C[C@@H](C)C1CC[C@]23C[C@]12CCC1[C@@]2(C)CCC(OC(C)=O)C(C)(C)C2CC(OC2OC(CO)C(O)C(O)C2O)[C@]13C (some centres undefined) | 31.5 µM | 31.8 µM | 41.6 µM | 46.6 µM | 35.1 µM | 28.8 µM | 34.5 µM | > 100 µM | 30.9 µM | 29.1 µM | 36.7 µM |
| NC(=O)/C=c1/c2ccccc2n2nc3ccccc3c12 | 40.6 µM | 37 µM | 64.1 µM | 53.2 µM | 77.4 µM | 35 µM | > 100 µM | 82.5 µM | 40.2 µM | 29.3 µM | > 100 µM |
| CC1(C)C2CC3C4CC5(Nc6ccccc6C5N41)[C@]3(C)CC2=O (some centres undefined) | > 50 µM | > 50 µM | > 50 µM | > 50 µM | > 50 µM | > 50 µM | > 50 µM | > 50 µM | > 50 µM | > 50 µM | > 50 µM |
| COC(=O)c1c[nH]c2c1-c1cc(C(=O)OCc3ccccc3)n(S(=O)(=O)c3ccc(C)cc3)c1C(=O)C2=O | 2.08 µM | 0.363 µM | 0.32 µM | > 100 µM | 1.02 µM | 0.955 µM | 2.69 µM | 2.65 µM | 0.481 µM | 1.13 µM | 0.312 µM |
| O=C1N[C@@H]2c3c(Br)sc(Br)c3C(=O)[C@@H]2O1 | 6.58 µM | 27.5 µM | 7.35 µM | 2.56 µM | 19.8 µM | 11.6 µM | 27.7 µM | 2.37 µM | 8.1 µM | 6.1 µM | 32.5 µM |
| CN1C=Cc2nccc3cc4c(c1c23)OCO4 | > 42.8 µM | 5.36 µM | 10.3 µM | > 100 µM | 24.8 µM | > 39.2 µM | > 33.1 µM | 5.77 µM | 30.2 µM | 32.4 µM | 10.1 µM |
| CC(C)C(C/C=C1/CC(CO)(COC(=O)c2ccccc2)OC1=O)C(C)C (centres undefined) | 17.4 µM | 67.1 µM | 34.7 µM | 48 µM | 23.2 µM | 38.2 µM | 45.7 µM | 27.8 µM | 29 µM | 36.1 µM | 25.7 µM |

— PubChem BioAssay (NCI)
